How the values were obtained:
[1] = system: normal human umbilical vein endothelial cells (HUVEC); assay: Nitrite (NO2) concentration in HUVEC culture supernatant by HPLC (NO production); type: cell-based; details: 48-hour culture
Procedure: A normal human umbilical vein endothelial cells (HUVEC) line available from Clonetics (SanDiego, Calif., USA) was used with EGM-2 Bullet Kit medium containing 2% FBS (Takara Bio Inc.). The cells were cultured at 37° C. in a 5% CO2 incubator, and used for experiments after 4 to 6 passages. Citrulline and serine, which were manufactured by Kyowa Hakko Bio, were used.
A cell suspension (0.45 mL) with the adjusted initial cell density to 1×10^5 cells/mL was inoculated in a 24-well plate (IWAKI). After 24-hour culture, the medium was replaced with a medium containing L-citrulline (final concentration 0.3 mM: low-dose citrulline group, or final concentration 3 mM: high-dose citrulline group), L-serine (final concentration 0.3 mM: serine group), or a mixture thereof (citrulline final concentration 0.3 mM and serine final concentration 0.3 mM: low-dose citrulline+serine group, or citrulline final concentration 3 mM and serine final concentration 0.3 mM: high-dose citrulline+serine group). In a control group, a medium to which only a solvent (PBS) was added was used. After 48-hour culture, the culture broth ([…]) was centrifuged at 12,000 rpm for 10 minutes, and the concentration of nitrite (NO2), which is a stable NO metabolite, in the culture supernatant was determined by HPLC (ENO-20, EICOM).

[2] = system: mice in which chronic rheumatoid arthritis was induced; details: oral administration, mice with induced chronic rheumatoid arthritis; cited from earlier work
[3] = system: normal rats and spontaneously hypertensive rats (SHR); details: intravenous acute administration, transient; cited from earlier work

SMILES | Effect on NO production alone ([1]; citrulline 0.3 mM alone (low-dose citrulline group)) | Effect on NO production alone ([1]; citrulline 3 mM alone (high-dose citrulline group)) | Arthritis score [2] | Average blood pressure [3] | Peripheral vascular resistance [3]
NC(=O)NCCC[C@H](N)C(=O)O [citrulline, L-citrulline] | does not affect NO production alone | NO production was enhanced |  |  | 
N[C@@H](CO)C(=O)O [serine, L-serine] |  |  | ameliorating the arthritis score | decreased | decreased in a transient manner

From patent US9833426B2, “Agent for preventing deterioration in vascular endothelial function or improving vascular endothelial function” (KYOWA HAKKO BIO CO., LTD., priority 2012, dated 2017)
